According to ChEMBL document CHEMBL1201862, “PubChem BioAssay data set” (2004):
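Compound exposure: 48 hours, 5 concentrations, 96-well plates. The concentration for 50% growth inhibition is given as GI50.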 Activity calls are given as the source filed them. Rule as the data show it: active = GI50 up to about 1.1 µM and inactive = higher.

Tests used:
Assay in all cases: NCI anticancer screen, dose series, 48 h
[1] = tested on: BT-549
[2] = tested on: K562
[3] = tested on: HOP-62
[4] = tested on: MDA-N
[5] = tested on: UACC-257
[6] = tested on: SNB-19
[7] = tested on: A498
[8] = tested on: LOX IMVI
[9] = tested on: SK-MEL-5
[10] = tested on: NCI-H522
[11] = tested on: OVCAR-5
[12] = tested on: U-251
[13] = tested on: SF-268
[14] = tested on: EKVX
[15] = tested on: Malme-3M
[16] = tested on: 786-0
[17] = tested on: HT-29
[18] = tested on: RXF 393
[19] = tested on: HCT-116
[20] = tested on: NCI-H23
[21] = tested on: IGROV-1
[22] = tested on: CCRF-CEM
[23] = tested on: OVCAR-4
[24] = tested on: Hs-578T
[25] = tested on: HL-60
[26] = tested on: DU-145
[27] = tested on: UO-31
[28] = tested on: OVCAR-3
[29] = tested on: HOP-92
[30] = tested on: A549
[31] = tested on: MDA-MB-435
[32] = tested on: SNB-75
[33] = tested on: M14
[34] = tested on: COLO 205
[35] = tested on: NCI-H226
[36] = tested on: SF-539
[37] = tested on: T47D
[38] = tested on: OVCAR-8
[39] = tested on: NCI/ADR-RES
[40] = tested on: SF-295
[41] = tested on: CAKI-1
[42] = tested on: SK-MEL-28
[43] = tested on: RPMI-8226
[44] = tested on: MOLT-4
[45] = tested on: HCT-15
[46] = tested on: TK-10
[47] = tested on: UACC-62
[48] = tested on: SR
[49] = tested on: MCF7
[50] = tested on: PC-3
[51] = tested on: SK-OV-3
[52] = tested on: ACHN
[53] = tested on: SN12C
[54] = tested on: MDA-MB-231
[55] = tested on: SK-MEL-2
[56] = tested on: NCI-H460
[57] = tested on: KM12
[58] = tested on: SW-620
[59] = tested on: HCC 2998

SMILES: CC(=O)N(C)c1ccc(/N=C/N(C)C)cc1
- GI50 [1]: > 100 µM (inactive)
- GI50 [2]: > 100 µM (inactive)
- GI50 [3]: > 100 µM (inactive)
- GI50 [4]: > 100 µM (inactive)
- GI50 [5]: > 100 µM (inactive)
- GI50 [6]: > 100 µM (inactive)
- GI50 [7]: > 100 µM (inactive)
- GI50 [8]: > 100 µM (inactive)
- GI50 [9]: > 100 µM (inactive)
- GI50 [10]: > 100 µM (inactive)
- GI50 [11]: > 100 µM (inactive)
- GI50 [12]: > 100 µM (inactive)
- GI50 [13]: > 100 µM (inactive)
- GI50 [14]: > 100 µM (inactive)
- GI50 [15]: > 100 µM (inactive)
- GI50 [16]: > 100 µM (inactive)
- GI50 [17]: > 100 µM (inactive)
- GI50 [18]: > 100 µM (inactive)
- GI50 [19]: > 100 µM (inactive)
- GI50 [20]: > 100 µM (inactive)
- GI50 [21]: > 100 µM (inactive)
- GI50 [22]: > 100 µM (inactive)
- GI50 [23]: > 100 µM (inactive)
- GI50 [24]: > 10 µM (inactive)
- GI50 [25]: > 100 µM (inactive)
- GI50 [26]: > 100 µM (inactive)
- GI50 [27]: > 100 µM (inactive)
- GI50 [28]: 44 µM (inactive)
- GI50 [29]: > 100 µM (inactive)
- GI50 [30]: > 100 µM (inactive)
- GI50 [31]: > 100 µM (inactive)
- GI50 [32]: > 100 µM (inactive)
- GI50 [33]: > 100 µM (inactive)
- GI50 [34]: > 100 µM (inactive)
- GI50 [35]: > 100 µM (inactive)
- GI50 [36]: > 100 µM (inactive)
- GI50 [37]: > 100 µM (inactive)
- GI50 [38]: > 100 µM (inactive)
- GI50 [39]: > 100 µM (inactive)
- GI50 [40]: > 100 µM (inactive)
- GI50 [41]: > 100 µM (inactive)
- GI50 [42]: > 100 µM (inactive)
- GI50 [43]: > 100 µM (inactive)
- GI50 [44]: > 100 µM (inactive)
- GI50 [45]: > 100 µM
- GI50 [46]: > 100 µM (inactive)
- GI50 [47]: > 100 µM (inactive)
- GI50 [48]: > 100 µM (inactive)
- GI50 [49]: 82.4 µM (inactive)
- GI50 [50]: > 100 µM (inactive)
- GI50 [51]: > 100 µM (inactive)
- GI50 [52]: > 100 µM (inactive)
- GI50 [53]: > 100 µM (inactive)
- GI50 [54]: > 100 µM (inactive)
- GI50 [55]: > 100 µM (inactive)

SMILES: O=C(CCc1cc(O)cc(O)c1)NCCc1ccc(O)c(O)c1
- GI50 [1]: > 100 µM (inactive)
- GI50 [2]: > 10 µM (inactive)
- GI50 [3]: > 100 µM (inactive)
- GI50 [4]: 36.7 µM (inactive)
- GI50 [5]: > 100 µM (inactive)
- GI50 [6]: > 100 µM (inactive)
- GI50 [7]: > 100 µM (inactive)
- GI50 [8]: > 100 µM (inactive)
- GI50 [9]: > 100 µM (inactive)
- GI50 [10]: > 100 µM (inactive)
- GI50 [11]: > 100 µM (inactive)
- GI50 [12]: > 100 µM (inactive)
- GI50 [13]: > 100 µM (inactive)
- GI50 [14]: > 100 µM (inactive)
- GI50 [16]: > 100 µM (inactive)
- GI50 [17]: > 100 µM (inactive)
- GI50 [18]: > 100 µM (inactive)
- GI50 [19]: > 100 µM (inactive)
- GI50 [20]: > 100 µM (inactive)
- GI50 [21]: > 100 µM (inactive)
- GI50 [22]: 17.3 µM (inactive)
- GI50 [24]: > 100 µM (inactive)
- GI50 [26]: > 100 µM (inactive)
- GI50 [27]: > 100 µM (inactive)
- GI50 [28]: > 100 µM (inactive)
- GI50 [29]: > 100 µM (inactive)
- GI50 [30]: > 100 µM (inactive)
- GI50 [31]: 21.6 µM (inactive)
- GI50 [56]: > 100 µM (inactive)
- GI50 [32]: > 100 µM (inactive)
- GI50 [33]: > 100 µM (inactive)
- GI50 [34]: > 100 µM (inactive)
- GI50 [35]: > 100 µM (inactive)
- GI50 [36]: > 100 µM (inactive)
- GI50 [37]: > 100 µM (inactive)
- GI50 [38]: > 100 µM (inactive)
- GI50 [39]: > 100 µM (inactive)
- GI50 [40]: > 100 µM (inactive)
- GI50 [41]: > 100 µM (inactive)
- GI50 [42]: > 100 µM (inactive)
- GI50 [43]: > 100 µM (inactive)
- GI50 [44]: > 100 µM (inactive)
- GI50 [45]: > 100 µM
- GI50 [46]: > 100 µM (inactive)
- GI50 [47]: > 100 µM (inactive)
- GI50 [48]: > 100 µM (inactive)
- GI50 [49]: > 100 µM (inactive)
- GI50 [50]: > 100 µM (inactive)
- GI50 [51]: > 100 µM (inactive)
- GI50 [52]: > 100 µM (inactive)
- GI50 [57]: > 100 µM (inactive)
- GI50 [53]: > 100 µM (inactive)
- GI50 [58]: > 100 µM (inactive)
- GI50 [59]: > 100 µM (inactive)
- GI50 [54]: > 100 µM (inactive)
- GI50 [55]: > 100 µM (inactive)
